Measurements reported in ChEMBL document CHEMBL1135281, “Solid-phase synthesis and pharmacological evaluation of analogues of PhTX-12-A potent and selective nicotinic acetylcholine receptor antagonist” (Bioorg Med Chem Lett, 2002).

Experiments:
[1] = target: T1, Acetylcholine receptor subunit delta (Homo sapiens, UniProt Q07001); test: Compound was evaluated for inhibitory activity against human embryonic muscle type Nicotinic acetylcholine receptor specifically delta-subunit expressed in TE-671 cell (at holding potential -100 mV); assay type: cell-based
T1 sequence (Q07001 whole entry): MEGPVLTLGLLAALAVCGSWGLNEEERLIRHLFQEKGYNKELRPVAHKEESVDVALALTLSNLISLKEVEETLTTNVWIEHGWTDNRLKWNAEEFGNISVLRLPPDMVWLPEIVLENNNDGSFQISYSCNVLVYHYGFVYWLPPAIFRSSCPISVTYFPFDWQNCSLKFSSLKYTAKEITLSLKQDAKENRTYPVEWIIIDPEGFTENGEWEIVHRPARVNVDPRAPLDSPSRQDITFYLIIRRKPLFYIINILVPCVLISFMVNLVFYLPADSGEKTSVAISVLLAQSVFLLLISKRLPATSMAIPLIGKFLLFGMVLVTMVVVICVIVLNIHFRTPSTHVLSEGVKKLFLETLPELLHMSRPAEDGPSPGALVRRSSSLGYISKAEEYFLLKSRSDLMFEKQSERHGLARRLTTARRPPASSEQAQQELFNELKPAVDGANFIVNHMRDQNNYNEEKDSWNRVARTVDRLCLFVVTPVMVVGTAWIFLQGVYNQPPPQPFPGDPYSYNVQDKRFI

[2] = target: T1, Acetylcholine receptor subunit delta; test: Compound was evaluated for inhibitory activity against human embryonic muscle type Nicotinic acetylcholine receptor specifically delta-subunit expressed in TE-671 cell (at holding potential -50 mV); assay type: cell-based

## CCCC(=O)N[C@@H](Cc1ccc(O)cc1)C(=O)NCCCCCCCCCCCCN
[1]
  IC50: 0.93 µM
[2]
  IC50: 1.53 µM

## CCCC(=O)N[C@@H](Cc1ccc(O)cc1)C(=O)NCCCCCCCCCCCN
[1]
  IC50: 0.46 µM
[2]
  IC50: 0.58 µM

## CCCC(=O)N[C@@H](Cc1ccc(O)cc1)C(=O)NCCCCCCCN
[1]
  IC50: 5.44 µM
[2]
  IC50: 10.5 µM

## CCCC(=O)N[C@@H](Cc1ccc(O)cc1)C(=O)NCCCCCCCCN
[1]
  IC50: 5.03 µM
[2]
  IC50: 9.76 µM

## CCCC(=O)N[C@@H](Cc1ccc(O)cc1)C(=O)NCCCCCCCCCCN
[1]
  IC50: ~10 µM
[2]
  IC50: 8.66 µM

## CCCC(=O)N[C@@H](Cc1ccc(O)cc1)C(=O)NCCCCCCCCCN
[1]
  IC50: 15.1 µM
[2]
  IC50: 13.3 µM

## CCCC(=O)N[C@@H](Cc1ccc(O)cc1)C(=O)NCCCNCCCCNCCCN [PHILANTHOTOXIN 343]
[1]
  IC50: 75 µM
